Data taken from publication PMC5862616 (Oncotarget, 2018).
Where two headings read alike, the source gives them in different places.

Tests used:
VEGFR2 = VEGFR2 (Homo sapiens, UniProt P35968); test: scanMAX kinase panel
TYRO3 = biological target: T1, TYRO3 (Homo sapiens, UniProt Q06418); test: scanMAX kinase panel
T1 sequence (Q06418 41-890): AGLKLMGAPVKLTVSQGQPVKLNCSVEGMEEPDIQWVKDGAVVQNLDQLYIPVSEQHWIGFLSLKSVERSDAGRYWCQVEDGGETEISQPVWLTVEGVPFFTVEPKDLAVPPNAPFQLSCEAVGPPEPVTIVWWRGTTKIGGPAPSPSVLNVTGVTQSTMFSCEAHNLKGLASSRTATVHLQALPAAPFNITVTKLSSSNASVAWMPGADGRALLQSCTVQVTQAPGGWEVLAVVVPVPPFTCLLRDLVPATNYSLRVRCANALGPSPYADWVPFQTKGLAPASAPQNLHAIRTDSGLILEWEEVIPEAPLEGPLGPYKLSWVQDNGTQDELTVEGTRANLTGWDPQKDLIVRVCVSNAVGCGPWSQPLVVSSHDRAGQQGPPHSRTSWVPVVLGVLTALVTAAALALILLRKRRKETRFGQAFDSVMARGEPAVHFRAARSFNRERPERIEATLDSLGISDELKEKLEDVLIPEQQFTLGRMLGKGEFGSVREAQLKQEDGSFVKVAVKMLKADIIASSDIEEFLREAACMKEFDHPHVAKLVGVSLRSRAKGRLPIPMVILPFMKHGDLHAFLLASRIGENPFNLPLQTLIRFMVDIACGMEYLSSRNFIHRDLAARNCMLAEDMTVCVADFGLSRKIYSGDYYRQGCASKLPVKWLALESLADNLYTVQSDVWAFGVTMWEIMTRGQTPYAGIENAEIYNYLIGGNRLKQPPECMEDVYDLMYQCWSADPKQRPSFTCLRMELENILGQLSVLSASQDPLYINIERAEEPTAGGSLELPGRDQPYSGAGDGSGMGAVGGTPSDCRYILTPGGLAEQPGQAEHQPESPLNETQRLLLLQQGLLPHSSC

PDGFRA = PDGFRA (Homo sapiens, UniProt P16234); test: scanMAX kinase panel
KM-12 cells = test: KM-12 anchorage dependent cell proliferation (CellTiter-Glo); format: cell-based; conditions: read-out: IC50 KM-12 cell proliferation (anchorage dependent)
MERTK = biological target: T2, MERTK (Homo sapiens, UniProt Q12866); test: scanMAX kinase panel
T2 sequence (Q12866 21-999): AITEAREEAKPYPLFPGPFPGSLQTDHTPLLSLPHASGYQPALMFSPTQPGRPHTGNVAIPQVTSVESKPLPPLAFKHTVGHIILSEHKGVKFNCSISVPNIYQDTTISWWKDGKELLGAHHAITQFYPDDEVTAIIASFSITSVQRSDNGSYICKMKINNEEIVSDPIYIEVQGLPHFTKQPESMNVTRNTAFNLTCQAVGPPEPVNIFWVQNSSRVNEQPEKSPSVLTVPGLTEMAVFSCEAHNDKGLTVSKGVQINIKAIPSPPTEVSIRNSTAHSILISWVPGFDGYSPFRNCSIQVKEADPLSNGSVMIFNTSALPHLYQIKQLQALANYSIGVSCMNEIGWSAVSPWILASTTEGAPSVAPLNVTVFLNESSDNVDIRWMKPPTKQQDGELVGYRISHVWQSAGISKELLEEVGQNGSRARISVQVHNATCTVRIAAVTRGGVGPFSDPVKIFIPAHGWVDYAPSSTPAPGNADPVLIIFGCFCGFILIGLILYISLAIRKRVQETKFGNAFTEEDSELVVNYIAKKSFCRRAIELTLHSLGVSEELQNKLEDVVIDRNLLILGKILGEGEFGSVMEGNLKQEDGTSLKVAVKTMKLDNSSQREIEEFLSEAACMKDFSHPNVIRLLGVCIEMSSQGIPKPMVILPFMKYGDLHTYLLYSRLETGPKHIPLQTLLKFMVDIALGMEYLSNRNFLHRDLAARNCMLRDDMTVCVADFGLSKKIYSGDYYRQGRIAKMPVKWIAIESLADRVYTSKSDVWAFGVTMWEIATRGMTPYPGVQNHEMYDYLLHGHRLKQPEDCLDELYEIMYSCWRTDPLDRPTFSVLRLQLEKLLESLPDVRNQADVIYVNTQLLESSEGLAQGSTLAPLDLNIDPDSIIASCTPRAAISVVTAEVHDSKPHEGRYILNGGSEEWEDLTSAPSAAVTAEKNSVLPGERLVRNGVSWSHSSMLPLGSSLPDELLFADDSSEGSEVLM

MKNK2 = MKNK2 (Homo sapiens, UniProt Q9HBH9); test: scanMAX kinase panel
TEK (TIE2) = TEK (TIE2) (Homo sapiens, UniProt Q02763); test: scanMAX kinase panel
[1] = 72 hours, CellTiter-Glo, 2% FBS

PDGFRA, sequence (P16234 24-1089): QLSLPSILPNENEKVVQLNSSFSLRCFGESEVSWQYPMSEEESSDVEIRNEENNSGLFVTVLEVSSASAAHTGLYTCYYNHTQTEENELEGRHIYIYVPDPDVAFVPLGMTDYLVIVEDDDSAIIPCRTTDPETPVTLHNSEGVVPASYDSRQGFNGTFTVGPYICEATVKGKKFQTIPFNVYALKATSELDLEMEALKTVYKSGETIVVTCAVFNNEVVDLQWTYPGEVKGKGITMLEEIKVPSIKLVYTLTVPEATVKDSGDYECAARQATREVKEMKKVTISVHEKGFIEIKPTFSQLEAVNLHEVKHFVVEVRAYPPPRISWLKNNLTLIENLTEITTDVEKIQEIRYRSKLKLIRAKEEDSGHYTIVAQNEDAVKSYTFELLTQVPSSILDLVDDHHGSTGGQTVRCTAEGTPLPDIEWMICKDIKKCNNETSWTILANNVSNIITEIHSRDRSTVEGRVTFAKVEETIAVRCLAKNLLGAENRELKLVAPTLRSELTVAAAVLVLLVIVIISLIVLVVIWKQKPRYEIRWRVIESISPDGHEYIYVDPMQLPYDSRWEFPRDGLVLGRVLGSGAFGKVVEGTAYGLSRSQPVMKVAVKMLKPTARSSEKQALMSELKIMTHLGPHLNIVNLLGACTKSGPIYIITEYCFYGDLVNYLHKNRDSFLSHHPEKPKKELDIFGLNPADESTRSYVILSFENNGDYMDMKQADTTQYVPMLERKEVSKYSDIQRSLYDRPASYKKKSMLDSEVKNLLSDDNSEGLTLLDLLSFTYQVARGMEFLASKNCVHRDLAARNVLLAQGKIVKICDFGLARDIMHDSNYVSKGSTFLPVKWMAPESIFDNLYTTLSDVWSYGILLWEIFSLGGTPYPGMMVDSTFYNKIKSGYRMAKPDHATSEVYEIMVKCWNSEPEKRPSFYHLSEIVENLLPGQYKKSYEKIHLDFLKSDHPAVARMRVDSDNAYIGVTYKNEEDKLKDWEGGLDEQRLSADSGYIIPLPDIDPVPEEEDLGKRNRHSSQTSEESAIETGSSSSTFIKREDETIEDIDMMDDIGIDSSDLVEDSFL
VEGFR2, sequence (P35968 20-1356): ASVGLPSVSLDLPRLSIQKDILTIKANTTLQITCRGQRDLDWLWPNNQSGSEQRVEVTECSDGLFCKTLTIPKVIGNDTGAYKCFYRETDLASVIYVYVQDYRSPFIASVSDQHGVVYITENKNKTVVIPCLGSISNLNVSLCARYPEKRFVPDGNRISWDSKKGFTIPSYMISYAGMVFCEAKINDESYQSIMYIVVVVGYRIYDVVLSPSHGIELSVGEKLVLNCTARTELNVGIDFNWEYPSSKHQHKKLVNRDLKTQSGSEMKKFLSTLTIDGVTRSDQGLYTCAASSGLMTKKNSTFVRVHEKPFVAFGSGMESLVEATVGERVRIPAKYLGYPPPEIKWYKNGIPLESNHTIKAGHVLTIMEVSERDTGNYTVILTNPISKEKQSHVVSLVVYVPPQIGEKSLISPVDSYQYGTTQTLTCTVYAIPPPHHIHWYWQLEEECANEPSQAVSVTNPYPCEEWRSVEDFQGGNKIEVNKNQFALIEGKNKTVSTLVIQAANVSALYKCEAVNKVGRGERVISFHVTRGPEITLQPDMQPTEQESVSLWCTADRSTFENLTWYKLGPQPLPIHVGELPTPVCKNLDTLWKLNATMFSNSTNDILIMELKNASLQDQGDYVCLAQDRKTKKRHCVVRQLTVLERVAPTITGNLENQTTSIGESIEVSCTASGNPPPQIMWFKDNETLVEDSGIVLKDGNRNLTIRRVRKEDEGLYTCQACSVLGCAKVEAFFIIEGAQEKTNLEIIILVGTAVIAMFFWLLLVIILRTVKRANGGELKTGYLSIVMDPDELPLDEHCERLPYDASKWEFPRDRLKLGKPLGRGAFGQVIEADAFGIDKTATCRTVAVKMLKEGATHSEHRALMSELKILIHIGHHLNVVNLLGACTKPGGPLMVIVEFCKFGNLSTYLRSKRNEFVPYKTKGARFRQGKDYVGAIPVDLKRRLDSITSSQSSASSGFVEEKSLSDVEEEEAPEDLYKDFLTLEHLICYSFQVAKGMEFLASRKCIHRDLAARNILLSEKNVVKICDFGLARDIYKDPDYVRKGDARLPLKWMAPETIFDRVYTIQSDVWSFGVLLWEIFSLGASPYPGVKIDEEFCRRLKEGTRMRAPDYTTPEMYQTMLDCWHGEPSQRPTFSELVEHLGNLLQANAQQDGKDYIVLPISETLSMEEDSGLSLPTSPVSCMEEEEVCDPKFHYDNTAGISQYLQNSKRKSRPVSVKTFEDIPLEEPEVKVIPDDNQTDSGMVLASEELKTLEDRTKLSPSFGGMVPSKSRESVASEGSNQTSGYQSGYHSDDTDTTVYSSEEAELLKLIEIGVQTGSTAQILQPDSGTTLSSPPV
TEK (TIE2), sequence (Q02763 23-1124): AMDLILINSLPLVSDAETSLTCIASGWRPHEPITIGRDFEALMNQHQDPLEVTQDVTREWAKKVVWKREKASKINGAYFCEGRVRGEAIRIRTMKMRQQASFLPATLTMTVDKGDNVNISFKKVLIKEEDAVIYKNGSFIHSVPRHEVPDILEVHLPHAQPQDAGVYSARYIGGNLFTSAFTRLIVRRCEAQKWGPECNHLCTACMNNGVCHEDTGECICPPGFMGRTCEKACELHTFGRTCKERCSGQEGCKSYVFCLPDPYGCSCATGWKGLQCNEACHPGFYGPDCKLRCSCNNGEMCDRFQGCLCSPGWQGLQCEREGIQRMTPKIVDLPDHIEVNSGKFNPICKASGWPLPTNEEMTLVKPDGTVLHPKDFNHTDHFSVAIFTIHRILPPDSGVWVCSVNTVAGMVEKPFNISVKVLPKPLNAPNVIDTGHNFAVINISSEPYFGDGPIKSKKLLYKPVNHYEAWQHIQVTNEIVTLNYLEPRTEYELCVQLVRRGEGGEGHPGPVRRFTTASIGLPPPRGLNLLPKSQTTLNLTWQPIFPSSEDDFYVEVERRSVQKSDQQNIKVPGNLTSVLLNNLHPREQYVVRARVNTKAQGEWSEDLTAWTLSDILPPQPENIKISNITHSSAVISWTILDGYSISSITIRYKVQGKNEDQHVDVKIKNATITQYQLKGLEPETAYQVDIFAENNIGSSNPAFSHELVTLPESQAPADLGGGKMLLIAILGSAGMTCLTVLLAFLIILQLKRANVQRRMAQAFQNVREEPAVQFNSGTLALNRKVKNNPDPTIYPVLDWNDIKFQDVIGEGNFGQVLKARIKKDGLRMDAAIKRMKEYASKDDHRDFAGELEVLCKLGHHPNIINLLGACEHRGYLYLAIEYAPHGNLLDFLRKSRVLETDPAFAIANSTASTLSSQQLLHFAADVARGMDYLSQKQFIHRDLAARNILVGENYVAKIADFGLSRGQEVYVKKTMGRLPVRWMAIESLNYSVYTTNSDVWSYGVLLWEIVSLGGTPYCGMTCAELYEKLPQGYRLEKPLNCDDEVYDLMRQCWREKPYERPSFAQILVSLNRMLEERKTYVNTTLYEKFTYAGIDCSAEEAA
MKNK2, sequence (Q9HBH9 whole entry): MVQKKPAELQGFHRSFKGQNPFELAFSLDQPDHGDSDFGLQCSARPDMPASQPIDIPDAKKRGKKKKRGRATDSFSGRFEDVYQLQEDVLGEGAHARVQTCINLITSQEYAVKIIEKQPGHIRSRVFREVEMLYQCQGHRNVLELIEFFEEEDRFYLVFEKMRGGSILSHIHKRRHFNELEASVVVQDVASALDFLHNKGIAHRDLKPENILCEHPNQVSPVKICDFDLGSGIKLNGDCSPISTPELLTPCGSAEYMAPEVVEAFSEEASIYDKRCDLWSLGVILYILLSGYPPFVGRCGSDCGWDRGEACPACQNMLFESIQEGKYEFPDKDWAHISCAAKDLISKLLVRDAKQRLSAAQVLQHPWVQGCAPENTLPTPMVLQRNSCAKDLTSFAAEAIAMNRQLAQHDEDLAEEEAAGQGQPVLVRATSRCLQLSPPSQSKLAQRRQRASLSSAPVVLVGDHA

| Structure (SMILES) | % Inhibition at 0.2 μM, VEGFR2 (VEGFR2) | % Inhibition at 0.2 μM, TYRO3 (TYRO3) | % Inhibition at 0.2 μM, PDGFRA (PDGFRA) | IC50 (KM-12 cells; Homo sapiens, KM12, 72 h) | inhibition at 0.2 µM (MERTK; read-out: % Inhibition at 0.2 μM, MERTK) | inhibition at 0.2 µM (MKNK2; read-out: % Inhibition at 0.2 μM, MKNK2) | % Inhibition at 0.2 μM, TEK (TIE2) (TEK (TIE2)) | IC50 (KM-12 cells; [1]) | % Inhibition at 0.2 μM, MERTK (MERTK) | % Inhibition at 0.2 μM, MKNK2 (MKNK2) |
| --- | --- | --- | --- | --- | --- | --- | --- | --- | --- | --- |
| Cc1ccc(C(=O)Nc2ccc(Oc3cc4cnn(C)c4cc3-c3cn[nH]c3)c(F)c2)c(=O)n1-c1ccc(F)cc1 [Merestinib] | 63% | 99% | 55% | 10 nM | 96% | 98% | 99% | – | – | – |
| Cn1ncc2cc(Oc3ccc(NC(=O)c4ccc(CO)n(-c5ccc(F)cc5)c4=O)cc3F)c(-c3cn[nH]c3)cc21 [M2] | 43% | 97% | 70% | – | – | – | 100% | 102 nM | 93% | 95% |
| Cc1ccc(C(=O)Nc2ccc(Oc3cc4cn[nH]c4cc3-c3cn[nH]c3)c(F)c2)c(=O)n1-c1ccc(F)cc1 [M1] | 72% | 100% | 80% | – | – | – | 100% | 16 nM | 99% | 98% |
